Measurements as given in US20080096861A1, “Chemical Compounds” (SMITHKLINE BEECHAM CORPORATION, priority 2004, published 2008).

System: HIV-1 IIIB
Test: HOS HIV-1 infectivity assay
Type: cell-based
Conditions: Human immunodeficiency virus 1, IIIB; as determined by the infectivity assay; strain not stated in Table 2; read-out: Activity Level
Description: Compounds were profiled against two HIV-1 viruses, the M-tropic (CCR5 utilizing) Ba-L strain and the T-tropic (CXCR4 utilizing) IIIB strain. Both viruses were propagated in human peripheral blood lymphocytes. Compounds were tested for there ability to block infection of the HOS cell line (expressing hCXCR4/hCCR5/hCD4/pHIV-LTR-luciferase) by either HIV-1 Ba-L or HIV-1 IIIB. Compound cytotoxicity was also examined in the absence of virus addition.
HOS cells (expressing hCXCR4/hCCR5/hCD4/pHIV-LTR-luciferase) were harvested and diluted in Dulbeccos modified Eagles media supplemented with 2% FCS and non-essential amino acid to a concentration of 60,000 cells/ml. The cells were plated into 96-well plates (100 ul per well) and the plates were placed in a tissue culture incubator (37° C.; 5% CO2/95% air) for a period of 24 h.
Subsequently, 50 ul of the desired drug solution (4 times the final concentration) was added to each well and the plates were returned to the tissue culture incubator (37° C.; 5% CO2/95% air) for 1 h. Following this incubation 50 ul of diluted virus was added to each well (approximately 2 million RLU per well of virus). The plates were returned to the tissue culture incubator (37° C.; 5% CO2/95% air) and were incubated for a further 96 h.
Following this incubation the endpoint for the virally infected cultures was quantified following addition of Steady-Glo Luciferase assay system reagent (Promega, Madison, Wis.). Cell viability or non-infected cultures was measured using a CellTiter-Glo luminescent cell viability assay system (Promega, Madison, Wis.). All luminescent readouts are performed on a Topcount luminescence detector (Packard, Meridien, Conn.).

| Compound | IC50 [nM] |
| --- | --- |
| CC(C)N1CCC[C@@H](Cn2c(CN(C)[C@@H]3CCCc4cccnc43)nc3ccccc32)C1 [Example 79, (8R)—N-Methyl-N-[(1-{[(3R)-1-(1-methylethyl)-3-piperidinyl]methyl}-1H-benzimidazol-2-yl)methyl]-5,6,7,8-tetrahydro-8-quinolinamine] | < 100 |
| CN(Cc1nc2ccccc2n1CC(C)(C)CNC(=N)N)C1CCCc2cccnc21 (stereo not drawn) [Example 68, N-[2,2-Dimethyl-3-(2-{[methyl(5,6,7,8-tetrahydro-8-quinolinyl)amino]methyl}-1H-benzimidazol-1-yl)propyl]guanidine] | < 100 |
| CN(Cc1nc2ccccc2n1CC1CCNC1)C1CCCc2cccnc21 (stereo not drawn) [Example 8c, N-Methyl-N-{[1-(3-pyrrolidinylmethyl)-1H-benzimidazol-2-yl]methyl}-5,6,7,8-tetrahydro-8-quinolinamine] | < 100 |
| CN(Cc1nc2ccccc2n1C[C@H]1CCCN(Cc2cccs2)C1)[C@H]1CCCc2cccnc21 [Example 102, (8S)—N-Methyl-N-[(1-{[(3S)-1-(2-thienylmethyl)-3-Piperidinyl]methyl}-1H-benzimidazol-2-yl)methyl]-5,6,7,8-tetrahydro-8-quinolinamine] | < 100 |
| CN(Cc1nc2ccccc2n1C[C@H]1CCCN(Cc2ccccn2)C1)[C@H]1CCCc2cccnc21 [Example 40, (8S)—N-Methyl-N-[(1-{[(3S)-1-(2-pyridinylmethyl)-3-piperidinyl]methyl}-1H-benzimidazol-2-yl)methyl]-5,6,7,8-tetrahydro-8-quinolinamine] | < 100 |
| CN(Cc1nc2ccccc2n1C[C@H]1CCCN(Cc2ccncc2)C1)[C@H]1CCCc2cccnc21 [Example 42, (8S)—N-Methyl-N-[(1-{[(3S)-1-(4-pyridinylmethyl)-3-piperidinyl]methyl}-1H-benzimidazol-2-yl)methyl]-5,6,7,8-tetrahydro-8-quinolinamine] | < 100 |
| NCCCn1c(CN(CCc2ccccc2)C2CCCc3cccnc32)nc2ccccc21 (stereo not drawn) [Example 52, N-{[1-(3-Aminopropyl)-1H-benzimidazol-2-yl]methyl}-N-(2-phenylethyl)-5,6,7,8-tetrahydro-8-quinolinamine] | 500 to 10000 |
| CN(Cc1nc2ccccc2n1C[C@H]1CCCNC1)[C@H]1CCCc2cccnc21 [Example 39h, (8S)—N-Methyl-N-({1-[(3S)-3-piperidinylmethyl]-1H-benzimidazol-2-yl}methyl)-5,6,7,8-tetrahydro-8-quinolinamine] | < 100 |
| CN(Cc1nc2ccccc2n1CCC1CCCCN1)C1CCCc2cccnc21 (stereo not drawn) [Example 23d, N-Methyl-N-({1-[2-(2-piperidinyl)ethyl]-1H-benzimidazol-2-yl}methyl)-5,6,7,8-tetrahydro-8-quinolinamine] | < 100 |
| CN(Cc1nc2ccccc2n1C[C@H]1CCCN(C(=N)N)C1)[C@@H]1CCCc2cccnc21 [Example 88, (3R)-3-{[2-({Methyl[(8R)-5,6,7,8-tetrahydro-8-quinolinyl]amino}methyl)-1H-benzimidazol-1-yl]methyl}-1-piperidinecarboximidamide] | 100 to 500 |
| NCCCCn1c(CN(Cc2ccccc2)C2CCCc3cccnc32)nc2ccccc21 (stereo not drawn) [Example 55, N-{[1-(4-Aminobutyl)-1H-benzimidazol-2-yl]methyl}-N-(Phenylmethyl)-5,6,7,8-tetrahydro-8-quinolinamine] | 500 to 10000 |
| CN(Cc1nc2ccccc2n1CC(=O)N1CCNCC1)C1CCCc2cccnc21 (stereo not drawn) [Example 32, N-Methyl-N-({1-[2-oxo-2-(1-piperazinyl)ethyl]-1H-benzimidazol-2-yl}methyl)-5,6,7,8-tetrahydro-8-quinolinamine] | 500 to 10000 |
| CN(Cc1nc2ccccc2n1C[C@@H]1CCCNC1)[C@H]1CCCc2cccnc21 [Example 75e, (8S)—N-Methyl-N-({1-[(3R)-3-piperidinylmethyl]-1H-benzimidazol-2-yl}methyl)-5,6,7,8-tetrahydro-8-quinolinamine] | < 100 |
| CC(C)N1CCC[C@@H]1CN1CCC[C@H](Cn2c(CN(C)[C@H]3CCCc4cccnc43)nc3ccccc32)C1 [Example 109, (8S)—N-Methyl-N-({1-[((3S)-1-{[(2R)-1-(1-methylethyl)-2-pyrrolidinyl]methyl}-3-piperidinyl)methyl]-1H-benzimidazol-2-yl}methyl)-5,6,7,8-tetrahydro-8-quinolinamine] | 100 to 500 |
| CN(Cc1nc2ccccc2n1C[C@H]1CCCN(Cc2cccnc2)C1)[C@H]1CCCc2cccnc21 [Example 41, (8S)—N-Methyl-N-[(1-{[(3S)-1-(3-pyridinylmethyl)-3-piperidinyl]methyl}-1H-benzimidazol-2-yl)methyl]-5,6,7,8-tetrahydro-8-quinolinamine] | < 100 |
| CN(Cc1nc2ccccc2n1C1CCNCC1)C1CCCc2cccnc21 (stereo not drawn) [Example 11h, N-Methyl-N-{[1-(4-piperidinyl)-1H-benzimidazol-2-yl]methyl}-5,6,7,8-tetrahydro-8-quinolinamine] | < 100 |
| CC(C)N1CCC[C@H](Cn2c(CN(C)[C@H]3CCCc4cccnc43)nc3ccccc32)C1 [Example 85, (8S)—N-Methyl-N-[(1-{[(3S)-1-(1-methylethyl)-3-piperidinyl]methyl}-1H-benzimidazol-2-yl)methyl]-5,6,7,8-tetrahydro-8-quinolinamine] | < 100 |
| CC(C)CCNCCCn1c(CN(C)C2CCCc3cccnc32)nc2ccccc21 (stereo not drawn) [Example 64, N-Methyl-N-[(1-{3-[(3-methylbutyl)amino]propyl}-1H-benzimidazol-2-yl)methyl]-5,6,7,8-tetrahydro-8-quinolinamine] | < 100 |
| CN(Cc1nc2ccccc2n1CC(=O)NCCN)C1CCCc2cccnc21 (stereo not drawn) [Example 31, N-(2-Aminoethyl)-2-(2-{[methyl(5,6,7,8-tetrahydro-8-quinolinyl)amino]methyl}-1H-benzimidazol-1-yl)acetamide] | 100 to 500 |
| CCCN/C(=N\C#N)N1CCC[C@H](Cn2c(CN(C)[C@H]3CCCc4cccnc43)nc3ccccc32)C1 [Example 90, (3R)—N-Cyano-3-{[2-({methyl[(8S)-5,6,7,8-tetrahydro-8-quinolinyl]amino}methyl)-1H-benzimidazol-1-yl]methyl}-N′-propyl-1-piperidinecarboximidamide] | 100 to 500 |
| CN(Cc1nc2ccccc2n1CC1CNC1)C1CCCc2cccnc21 (stereo not drawn) [Example 10d, N-{[1-(3-Azetidinylmethyl)-1H-benzimidazol-2-yl]methyl}-N-methyl-5,6,7,8-tetrahydro-8-quinolinamine] | < 100 |
| CN(Cc1nc2ccccc2n1CCCN1CCOCC1)C1CCCc2cccnc21 (stereo not drawn) [Example 57, N-Methyl-N-([1-[3-(4-morpholinyl)propyl]-1H-benzimidazol-2-yl]methyl)-5,6,7,8-tetrahydro-8-quinolinamine] | 100 to 500 |
| CN1CCC[C@H](Cn2c(CN(CCCO)[C@H]3CCCc4cccnc43)nc3ccccc32)C1 [Example 96, 3-{[(1-{[(3S)-1-Methyl-3-piperidinyl]methyl}-1H-benzimidazol-2-yl)methyl][(8S)-5,6,7,8-tetrahydro-8-quinolinyl]amino}-1-propanol] | < 100 |
| CN(Cc1nc2ccccc2n1C[C@H]1CCCN(CCCO)C1)[C@H]1CCCc2cccnc21 [Example 47, 3-((3S)-3-{[2-({Methyl[(8S)-5,6,7,8-tetrahydro-8-quinolinyl]amino}methyl)-1H-benzimidazol-1-yl]methyl}1-piperidinyl)-1-propanol] | < 100 |
| CN(Cc1nc2ccccc2n1CCn1ccnc1)C1CCCc2cccnc21 (stereo not drawn) [Example 70, N-({1-[2-(1H-Imidazol-1-yl)ethyl]-1H-benzimidazol-2-yl}methyl)-N-methyl-5,6,7,8-tetrahydro-8-quinolinamine] | 100 to 500 |
| CN(Cc1nc2ccccc2n1CCCNC(=N)N)C1CCCc2cccnc21 (stereo not drawn) [Example 61, N-[3-(2-{[Methyl(5,6,7,8-tetrahydro-8-quinolinyl)amino]methyl}-1H-benzimidazol-1-yl)propyl]guanidine] | < 100 |
| CN(Cc1nc2ccccc2n1CCCNS(C)(=O)=O)C1CCCc2cccnc21 (stereo not drawn) [Example 63, N-[3-(2-{[Methyl(5,6,7,8-tetrahydro-8-quinolinyl)amino]methyl}-1H-benzimidazol-1-yl)propyl]methanesulfonamide] | 100 to 500 |
| CC(C)CCN1CCC[C@@H](Cn2c(CN(C)[C@H]3CCCc4cccnc43)nc3ccccc32)C1 [Example 80, (8S)—N-Methyl-N-[(1-{[(3R)-1-(3-methylbutyl)-3-piperidinyl]methyl}-1H-benzimidazol-2-yl)methyl]-5,6,7,8-tetrahydro-8-quinolinamine] | < 100 |
| CN(C)Cc1ccccc1-n1c(CN(C)C2CCCc3cccnc32)nc2ccccc21 (stereo not drawn) [Example 74, N-[(1-{2-[(Dimethylamino)methyl]phenyl}-1H-benzimidazol-2-yl)methyl]-N-methyl-5,6,7,8-tetrahydro-8-quinolinamine] | 500 to 10000 |
| CN(Cc1nc2ccccc2n1CC(=O)NCCCN)C1CCCc2cccnc21 (stereo not drawn) [Example 30, N-(3-Aminopropyl)-2-(2-{[methyl(5,6,7,8-tetrahydro-8-quinolinyl)amino]methyl}-1H-benzimidazol-1-yl)acetamide] | 100 to 500 |
